T1: Carboxypeptidase B (Sus scrofa) (UniProt P09955)
T1 sequence (whole entry): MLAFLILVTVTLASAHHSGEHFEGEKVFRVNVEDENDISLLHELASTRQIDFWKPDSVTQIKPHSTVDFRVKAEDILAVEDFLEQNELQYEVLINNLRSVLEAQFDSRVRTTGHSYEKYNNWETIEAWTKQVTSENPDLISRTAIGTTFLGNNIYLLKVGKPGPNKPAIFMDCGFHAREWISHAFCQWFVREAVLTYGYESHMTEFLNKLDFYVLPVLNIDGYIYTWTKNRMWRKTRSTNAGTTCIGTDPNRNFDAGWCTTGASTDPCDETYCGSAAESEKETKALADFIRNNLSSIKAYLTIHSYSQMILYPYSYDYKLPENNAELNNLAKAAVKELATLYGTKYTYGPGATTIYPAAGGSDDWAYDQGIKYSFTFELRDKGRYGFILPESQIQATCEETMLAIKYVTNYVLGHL

B1: Carboxypeptidase B (Sus scrofa), P09955 (protein)
chain: T1 sequence (whole entry)

How the values were obtained:
[1] = Ratio of kinetic constants (kcat/km) for the inhibition against carboxypeptidase B
[2] = target: T1, Carboxypeptidase B (Sus scrofa); assay: Substrate kinetic value (kcat) against porcine carboxypeptidase B
[3] = substrate: COc1ccc(/N=N/C(=O)NC(CCCCN)C(=O)O)cc1; assay: (§1) Affinity to porcine carboxypeptidase B at pH 7.9
[4] = substrate: C[C@@H](NC(=O)/C=C/c1ccco1)C(=O)N[C@@H](CCCCN)C(=O)O; assay: as §1

Molecule	Ratio [1] [M⁻¹ s⁻¹]	k cat [2] [s⁻¹]	Km [3] [µM]	Km [4] [µM]
C[C@@H](NC(=O)/C=C/c1ccco1)C(=O)N[C@@H](CCCCN)C(=O)O	36000	–	–	–
COc1ccc(/N=N/C(=O)NC(CCCCN)C(=O)O)cc1 (stereo not given)	95000	76	–	–
B1	–	–	810	1160

Source: ChEMBL document CHEMBL1132016, “Catalytic activity of carboxypeptidase B and of carboxypeptidase Y with anisylazoformyl substrates” (Bioorg Med Chem Lett, 1999)
